Experimental data taken from US20020052295A1, “Diacyl derivatives of propylene diamine having herbicidal activity” (priority 1999, published 2002).

Key:
CONAR [1] = test: Post-emergence herbicidal activity on CONAR (field bindweed); type: in vivo, Convolvulus arvensis; conditions: post-emergence spray; lowest tested rate with 80% or greater inhibition; about 14 days after treatment
Text: (§1) All such uses, and the biological activity enabling such uses, are embraced by the term “herbicidal” herein. Tables 15 and 16 summarize results of tests conducted as described below to determine the pre-emergence herbicidal activity, in the form of a GR80 value, of illustrative compounds of this invention. […] Where herbicidal activity was evident but 80% inhibition was not achieved at the highest rate tested (typically 1000 g/ha), an asterisk (*) is shown in the following tables. Herbicidal activity evident in the form of symptoms of phytotoxicity, in the absence of at least 80% inhibition at any rate, is indicated in the tables by “phyto”. A blank cell in the following tables indicates no herbicidal or phytotoxic response at any rate tested.
(§2) In another set of tests, the post-emergence activity of compounds of this invention was evaluated on the cool season species listed above. The following procedure was used.
(§3) A pre-prepared topsoil mixture (described above) was placed in a pot and compacted to a depth of 1.0 to 1.25 cm from the top of the pot. Seeds of each of several monocotyledonous and dicotyledonous annual plant species were placed on top of the soil The seeds were covered with a mixture of 50% topsoil and 50% Rediearth™ in sufficient quantity to level-fill the pots. The pots were then placed on a greenhouse bench and subirrigated as needed until plants growing from the seeds had emerged and reached a suitable growth stage for post-emergence treatment, typically 9 to 14 days after planting.
(§4) A known amount of each test compound dissolved or suspended in an appropriate organic solvent was diluted with a 50:50 mix of acetone and water and applied to the plants by spraying with a standard spray nozzle in a spray volume of 3,100 l/ha at a spray pressure of […] (30 psig). Control plants were not sprayed.
(§5) After treatment the plants were placed in a greenhouse with a 30/21° C. day/night temperature regime and were subsequently watered as needed for growth. Approximately 14 days after treatment, the plants were observed and herbicidal efficacy recorded as percent inhibition by comparison with control plants.

ECHCG [2] = test: Post-emergence herbicidal activity on ECHCG (barnyardgrass); type: in vivo, Echinochloa crus-galli; conditions: post-emergence spray; lowest tested rate with 80% or greater inhibition; about 14 days after treatment
Text: as §1, §2, §3, §4, §5

PANDI [3] = test: Pre-emergence herbicidal activity on PANDI (fall panicum); type: in vivo, Panicum dichotomiflorum; conditions: lowest tested rate giving 80% or greater inhibition, approx. 14 days after planting and treating, greenhouse
How it was run: (§6)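 In this greenhouse test, compound in acetone/water (50:50) was put on the soil surface directly after seeds were sown and covered. Plants received overhead irrigation and were held at 30/21 °C day/night. About 14 days on, inhibition relative to untreated controls gave GR80.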

DIGSA [4] = test: Post-emergence herbicidal activity on DIGSA (large crabgrass); type: in vivo, Digitaria sanguinalis; conditions: post-emergence spray; lowest tested rate with 80% or greater inhibition; about 14 days after treatment
CONAR [5] = test: Pre-emergence herbicidal activity on CONAR (field bindweed); type: in vivo, Convolvulus arvensis; conditions: lowest tested rate giving 80% or greater inhibition, approx. 14 days after planting and treating, greenhouse
How it was run: as §6

SETFA [6] = test: Pre-emergence herbicidal activity on SETFA (giant foxtail); type: in vivo, Setaria faberi; conditions: lowest tested rate giving 80% or greater inhibition, approx. 14 days after planting and treating, greenhouse
How it was run: as §6

SOLNI [7] = test: Post-emergence herbicidal activity on SOLNI (black nightshade); type: in vivo, Solanum nigrum; conditions: post-emergence spray; lowest tested rate with 80% or greater inhibition; about 14 days after treatment
Text: as §1, §2, §3, §4, §5

DATST [8] = test: Post-emergence herbicidal activity on DATST (jimsonweed); type: in vivo, Datura stramonium; conditions: post-emergence spray; lowest tested rate with 80% or greater inhibition; about 14 days after treatment
Text: as §1, §2, §3, §4, §5

POROL [9] = test: Post-emergence herbicidal activity on POROL (common purslane; table head prints PORAL); type: in vivo, Portulaca oleracea; conditions: post-emergence spray; lowest tested rate with 80% or greater inhibition; about 14 days after treatment
Text: as §1, §2, §3, §4, §5

PANDI [10] = test: Post-emergence herbicidal activity on PANDI (fall panicum); type: in vivo, Panicum dichotomiflorum; conditions: post-emergence spray; lowest tested rate with 80% or greater inhibition; about 14 days after treatment
Text: as §1, §2, §3, §4, §5

BRAPP [11] = test: Post-emergence herbicidal activity on BRAPP (broadleaf signalgrass); type: in vivo, Brachiaria platyphylla; conditions: post-emergence spray; lowest tested rate with 80% or greater inhibition; about 14 days after treatment
Text: as §1, §2, §3, §4, §5

CHEAL [12] = test: Pre-emergence herbicidal activity on CHEAL (common lambsquarters); type: in vivo, Chenopodium album; conditions: lowest tested rate giving 80% or greater inhibition, approx. 14 days after planting and treating, greenhouse
How it was run: as §6

PANMI = test: Post-emergence herbicidal activity on PANMI (wild proso millet); type: in vivo, Panicum miliaceum; conditions: post-emergence spray; lowest tested rate with 80% or greater inhibition; about 14 days after treatment
AMARE [13] = test: Pre-emergence herbicidal activity on AMARE (redroot pigweed); type: in vivo, Amaranthus retroflexus; conditions: lowest tested rate giving 80% or greater inhibition, approx. 14 days after planting and treating, greenhouse
How it was run: as §6

SOLNI [14] = test: Pre-emergence herbicidal activity on SOLNI (black nightshade); type: in vivo, Solanum nigrum; conditions: lowest tested rate giving 80% or greater inhibition, approx. 14 days after planting and treating, greenhouse
How it was run: as §6

SORVU = test: Post-emergence herbicidal activity on SORVU (shattercane); type: in vivo, Sorghum vulgare; conditions: post-emergence spray; lowest tested rate with 80% or greater inhibition; about 14 days after treatment
Text: as §1, §2, §3, §4, §5

CIRAR [15] = test: Post-emergence herbicidal activity on CIRAR (canada thistle, seedling); type: in vivo, Cirsium arvense; conditions: post-emergence spray; lowest tested rate with 80% or greater inhibition; about 14 days after treatment
Text: as §1, §2, §3, §4, §5

SORHA [16] = test: Post-emergence herbicidal activity on SORHA (johnsongrass, seedling); type: in vivo, Sorghum halepense; conditions: post-emergence spray; lowest tested rate with 80% or greater inhibition; about 14 days after treatment
Text: as §1, §2, §3, §4, §5

DATST [17] = test: Pre-emergence herbicidal activity on DATST (jimsonweed); type: in vivo, Datura stramonium; conditions: lowest tested rate giving 80% or greater inhibition, approx. 14 days after planting and treating, greenhouse
How it was run: as §6

ECHCG [18] = test: Pre-emergence herbicidal activity on ECHCG (barnyardgrass); type: in vivo, Echinochloa crus-galli; conditions: lowest tested rate giving 80% or greater inhibition, approx. 14 days after planting and treating, greenhouse
How it was run: as §6

DIGSA [19] = test: Pre-emergence herbicidal activity on DIGSA (large crabgrass); type: in vivo, Digitaria sanguinalis; conditions: lowest tested rate giving 80% or greater inhibition, approx. 14 days after planting and treating, greenhouse
How it was run: as §6

BRAPP [20] = test: Pre-emergence herbicidal activity on BRAPP (broadleaf signalgrass); type: in vivo, Brachiaria platyphylla; conditions: lowest tested rate giving 80% or greater inhibition, approx. 14 days after planting and treating, greenhouse
How it was run: as §6

SORHA [21] = test: Pre-emergence herbicidal activity on SORHA (johnsongrass, seedling); type: in vivo, Sorghum halepense; conditions: lowest tested rate giving 80% or greater inhibition, approx. 14 days after planting and treating, greenhouse
How it was run: as §6

AMARE [22] = test: Post-emergence herbicidal activity on AMARE (redroot pigweed); type: in vivo, Amaranthus retroflexus; conditions: post-emergence spray; lowest tested rate with 80% or greater inhibition; about 14 days after treatment
Text: as §1, §2, §3, §4, §5

CIRAR [23] = test: Pre-emergence herbicidal activity on CIRAR (canada thistle, seedling); type: in vivo, Cirsium arvense; conditions: lowest tested rate giving 80% or greater inhibition, approx. 14 days after planting and treating, greenhouse
How it was run: as §6

POROL [24] = test: Pre-emergence herbicidal activity on POROL (common purslane); type: in vivo, Portulaca oleracea; conditions: lowest tested rate giving 80% or greater inhibition, approx. 14 days after planting and treating, greenhouse
How it was run: as §6

SETFA [25] = test: Post-emergence herbicidal activity on SETFA (giant foxtail); type: in vivo, Setaria faberi; conditions: post-emergence spray; lowest tested rate with 80% or greater inhibition; about 14 days after treatment
Text: as §1, §2, §3, §4, §5

ABUTH [26] = test: Pre-emergence herbicidal activity on ABUTH (velvetleaf); type: in vivo, Abutilon theophrasti; conditions: lowest tested rate giving 80% or greater inhibition, approx. 14 days after planting and treating, greenhouse
How it was run: as §6

CHEAL [27] = test: Post-emergence herbicidal activity on CHEAL (common lambsquarters); type: in vivo, Chenopodium album; conditions: post-emergence spray; lowest tested rate with 80% or greater inhibition; about 14 days after treatment
Text: as §1, §2, §3, §4, §5

ABUTH [28] = test: Post-emergence herbicidal activity on ABUTH (velvetleaf); type: in vivo, Abutilon theophrasti; conditions: post-emergence spray; lowest tested rate with 80% or greater inhibition; about 14 days after treatment
Text: as §1, §2, §3, §4, §5

CC(CNC(=O)c1cccc(C(F)(F)F)c1)NC(=O)c1cccc(I)c1 (centres unmarked) [Example 59]
Post-emergence activity (GR80) CONAR (CONAR [1]): phyto
Post-emergence activity (GR80) ECHCG (ECHCG [2]): [empty]
Pre-emergence activity (GR80) on PANDI (PANDI [3]): phyto
Post-emergence activity (GR80) DIGSA (DIGSA [4]): phyto
Pre-emergence activity (GR80) on CONAR (CONAR [5]): phyto
Pre-emergence activity (GR80) on SETFA (SETFA [6]): 1000 g/ha
Post-emergence activity (GR80) SOLNI (SOLNI [7]): phyto
Post-emergence activity (GR80) DATST (DATST [8]): phyto
Post-emergence activity (GR80) PORAL (POROL [9]): [empty]
Post-emergence activity (GR80) PANDI (PANDI [10]): phyto
Post-emergence activity (GR80) BRAPP (BRAPP [11]): phyto
Pre-emergence activity (GR80) on CHEAL (CHEAL [12]): 500 g/ha
Post-emergence activity (GR80) PANMI (PANMI): [empty]
Pre-emergence activity (GR80) on AMARE (AMARE [13]): 250 g/ha
Pre-emergence activity (GR80) on SOLNI (SOLNI [14]): phyto
Post-emergence activity (GR80) SORVU (SORVU): [empty]
Post-emergence activity (GR80) CIRAR (CIRAR [15]): phyto
Post-emergence activity (GR80) SORHA (SORHA [16]): [empty]
Pre-emergence activity (GR80) on DATST (DATST [17]): 1000 g/ha
Pre-emergence activity (GR80) on ECHCG (ECHCG [18]): phyto
Pre-emergence activity (GR80) on DIGSA (DIGSA [19]): phyto
Pre-emergence activity (GR80) on BRAPP (BRAPP [20]): phyto
Pre-emergence activity (GR80) on SORHA (SORHA [21]): phyto
Post-emergence activity (GR80) AMARE (AMARE [22]): * (Where herbicidal activity was evident but 80% inhibition was not achieved at the highest rate tested (typically 1000 g/ha), an asterisk (*) is shown)
Pre-emergence activity (GR80) on CIRAR (CIRAR [23]): 1000 g/ha
Pre-emergence activity (GR80) on PORAL (POROL [24]): 125 g/ha
Post-emergence activity (GR80) SETFA (SETFA [25]): [empty]
Pre-emergence activity (GR80) on ABUTH (ABUTH [26]): phyto
Post-emergence activity (GR80) CHEAL (CHEAL [27]): [empty]
Post-emergence activity (GR80) ABUTH (ABUTH [28]): phyto

C[C@H](CNC(=O)c1cccc(C(F)(F)F)c1)NC(=O)Oc1ccc(Cl)cc1 [Example 231]
Post-emergence activity (GR80) CONAR (CONAR [1]): phyto
Post-emergence activity (GR80) ECHCG (ECHCG [2]): [empty]
Pre-emergence activity (GR80) on PANDI (PANDI [3]): phyto
Post-emergence activity (GR80) DIGSA (DIGSA [4]): phyto
Pre-emergence activity (GR80) on SETFA (SETFA [6]): phyto
Post-emergence activity (GR80) SOLNI (SOLNI [7]): [empty]
Post-emergence activity (GR80) DATST (DATST [8]): * (Where herbicidal activity was evident but 80% inhibition was not achieved at the highest rate tested (typically 1000 g/ha), an asterisk (*) is shown)
Post-emergence activity (GR80) PORAL (POROL [9]): phyto
Post-emergence activity (GR80) PANDI (PANDI [10]): phyto
Post-emergence activity (GR80) BRAPP (BRAPP [11]): [empty]
Pre-emergence activity (GR80) on CHEAL (CHEAL [12]): phyto
Post-emergence activity (GR80) PANMI (PANMI): [empty]
Pre-emergence activity (GR80) on AMARE (AMARE [13]): 750 g/ha
Pre-emergence activity (GR80) on SOLNI (SOLNI [14]): phyto
Post-emergence activity (GR80) SORVU (SORVU): phyto
Post-emergence activity (GR80) CIRAR (CIRAR [15]): [empty]
Post-emergence activity (GR80) SORHA (SORHA [16]): phyto
Pre-emergence activity (GR80) on DATST (DATST [17]): phyto
Pre-emergence activity (GR80) on DIGSA (DIGSA [19]): 1000 g/ha
Pre-emergence activity (GR80) on BRAPP (BRAPP [20]): phyto
Post-emergence activity (GR80) AMARE (AMARE [22]): phyto
Pre-emergence activity (GR80) on CIRAR (CIRAR [23]): phyto
Pre-emergence activity (GR80) on PORAL (POROL [24]): phyto
Post-emergence activity (GR80) SETFA (SETFA [25]): [empty]
Post-emergence activity (GR80) CHEAL (CHEAL [27]): phyto
Post-emergence activity (GR80) ABUTH (ABUTH [28]): [empty]
